Source: US20260108547A1, “LEVERAGING L-FUCOSE-MEDIATED SIGNALING TO INDUCE MONOCYTE-DERIVED DENDRITIC CELL POLARIZATION” (H. LEE MOFFITT CANCER CENTER AND RESEARCH INSTITUTE, INC., priority 2022, published 2026)

Tests used:
CD209 = assay: DC broad panel analysis and signaling array on phosphorylated proteins; assay type: cell-based
Excerpt: To better understand the phenotype of DC subsets after L-fucose treatment, we preformed broad panel analysis to highlight unique subsets of DCs, including markers of activation, cross presentation and known signaling mechanisms. […] To determine if this increased expression was related to any other signaling changes we performed a signaling array on key phosphorylated proteins on activated DCs after L-fucose treatment. […] From this, we concluded that L-fucose increases expression of CD209 and modulates downstream signaling paths

PD-L1 = assay: Flow cytometric assessment of cell surface PD-L1, mouse melanoma cells (SW1, SM1); assay type: cell-based
Protocol: Indicated cells were treated for 72 h with DMSO, 250 μM fucosyltransferase inhibitor (FUTi) (Millipore Sigma (St. Louis, MO)), or 250 μM of L-fucose (Biosynth (Oak Terrace, IL)). After 72 h, cells were stained with 0.1 μM PKH26 (Millipore Sigma (St. Louis, MO)) prior to fixation in 4% formaldehyde solution. The cells were stained with anti-HLA-DRB1 and fluorescein AAL, or anti-human or anti-mouse PD-L1 overnight. The following day the cells were washed 3 times prior to adding AlexaFluor 594 donkey anti-rabbit. Cells were washed 3 times and then subject to flow cytometric analyses using a FACSCalibur (BD Biosciences (San Jose, CA)). Samples were analyzed using FlowJo analysis software (BD Biosciences (San Jose, CA)). Median values of DRB1 and AAL were normalized to PKH26 values and statistical analysis was performed using GraphPad Prism.

## C[C@H](O)[C@@H](O)[C@@H](O)[C@H](O)C=O [L-fucose]
CD209; DC subsets after L-fucose treatment
  CD209 expression: increase
CD209; activated DCs
  AKT and PARP (signaling array on phosphorylated proteins): significant decreases
PD-L1
  cell surface levels of PD-L1: does not alter
